Laboratory results from publication PMC5573830 (The Journal of Veterinary Medical Science, 2017).

Molecular target: rTgAPN2 (recombinant aminopeptidase N2, TgAPN2) (Toxoplasma gondii, UniProt A0A7J6K0L4)
Assay: residual H-Ala-MCA hydrolysis, fluorescence
Type: biochemical
Conditions: 30 min pre-incubation at 37 °C, substrate H-Ala-MCA

SMILES: CC(C)C[C@H](NC(=O)[C@@H](O)[C@H](N)Cc1ccccc1)C(=O)O [bestatin]
- residual enzyme activity (%): The activity of rTgAPN2 was reduced in a dose-dependent manner in the presence of bestatin or amastatin
